Measurements: PubChem BioAssay AID1259411 (Chemical Carcinogenesis Research Information System (CCRIS), 2018)
Calls of active or inactive are those of the source. No rule for the calls is given here.

System: rodent carcinogenicity bioassays, tumor incidence
Experiment: CCRIS carcinogenicity studies
Conditions: Dose: 0, Dose: 0
Method in brief: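 NCI-built, expert-reviewed records of carcinogenicity and related test outcomes (mutagenicity, tumor promotion/inhibition) compiled from published and report sources, historical span 1985-2011, not updated.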

SMILES: C=CN1CCCC1=O
- carcinogen call (Species: RAT, Strain/Sex: SPRAGUE-DAWLEY/ MALE, Route: INHALATION, 5, 10, 20 PPM 6 HR/D 5D/WK FOR 24 MO (STUDY DURATION: 24 MO), 5, 10, 20 PPM 6 HR/D 5D/WK FOR 24 MO (STUDY DURATION: 24 MO), Tumor Site: Type of Lesion: LARYNX: SQUAMOUS CELL CARCINOMA, LIVER: HEPATOCELLULAR CARCINOMA, NASAL CAVITY: ADENOCARCINOMA, ADENOMA, Tumor Site: Type of Lesion: LARYNX: SQUAMOUS CELL CARCINOMA, LIVER: HEPATOCELLULAR CARCINOMA, NASAL CAVITY: ADENOCARCINOMA, ADENOMA): active; positive
- carcinogen call (Species: RAT, Strain/Sex: SPRAGUE-DAWLEY/FEMALE, Route: INHALATION, 5, 10, 20 PPM 6 HR/D 5 D/WK FOR 24 MO (STUDY DURATION: 24 MO), 5, 10, 20 PPM 6 HR/D 5 D/WK FOR 24 MO (STUDY DURATION: 24 MO), Tumor Site: Type of Lesion: LARYNX: SQUAMOUS CELL CARCINOMA, LIVER: HEPATOCELLULAR CARCINOMA, NASAL CAVITY: ADENOCARCINOMA, ADENOMA, Tumor Site: Type of Lesion: LARYNX: SQUAMOUS CELL CARCINOMA, LIVER: HEPATOCELLULAR CARCINOMA, NASAL CAVITY: ADENOCARCINOMA, ADENOMA): active; positive

SMILES: CCN(CC)CCCNC(=O)Cn1ncc(-c2ccccc2)c1-c1ccccc1
- carcinogen call (Species: RAT, Strain/Sex: SPRAGUE-DAWLEY/FEMALE, Route: GAVAGE, 20, 80, 160 MG/KG 1/D FOR 1 YR (STUDY DURATION: 1 YR), 20, 80, 160 MG/KG 1/D FOR 1 YR (STUDY DURATION: 1 YR)): inactive; negative
- carcinogen call (Species: RAT, Strain/Sex: SPRAGUE-DAWLEY/MALE, Route: GAVAGE, 20, 80, 160 MG/KG 1/D FOR 1 YR (STUDY DURATION: 1 YR), 20, 80, 160 MG/KG 1/D FOR 1 YR (STUDY DURATION: 1 YR)): inactive; negative

SMILES: Clc1ccc2c(c1)C(c1ccccc1)=NCc1nncn1-2
- carcinogen call (Species: MOUSE, Strain/Sex: B6C3F1/FEMALE, Route: ORAL, 0.8, 3, 10 MG/KG IN DIET FOR 2 YR (STUDY DURATION: 2 YR), 0.8, 3, 10 MG/KG IN DIET FOR 2 YR (STUDY DURATION: 2 YR)): inactive; negative
- carcinogen call (Species: MOUSE, Strain/Sex: B6C3F1/FEMALE, Route: ORAL, 0.8, 3, 10 MG/KG/D IN DIET FOR 2 YR (STUDY DURATION: 2 YR), 0.8, 3, 10 MG/KG/D IN DIET FOR 2 YR (STUDY DURATION: 2 YR)): inactive; negative
- carcinogen call (Species: MOUSE, Strain/Sex: B6C3F1/MALE, Route: ORAL, 0.8, 3, 10 MG/KG IN DIET FOR 2 YR (STUDY DURATION: 2 YR), 0.8, 3, 10 MG/KG IN DIET FOR 2 YR (STUDY DURATION: 2 YR)): inactive; negative
- carcinogen call (Species: MOUSE, Strain/Sex: B6C3F1/MALE, Route: ORAL, 0.8, 3, 10 MG/KG/D IN DIET FOR 2 YR (STUDY DURATION: 2 YR), 0.8, 3, 10 MG/KG/D IN DIET FOR 2 YR (STUDY DURATION: 2 YR)): inactive; negative
- carcinogen call (Species: RAT, Strain/Sex: SPRAGUE-DAWLEY/FEMALE, Route: ORAL, 0.5, 2, 10 MG/KG IN DIET FOR 2 YR (STUDY DURATION: 2 YR), 0.5, 2, 10 MG/KG IN DIET FOR 2 YR (STUDY DURATION: 2 YR)): inactive; negative
- carcinogen call (Species: RAT, Strain/Sex: SPRAGUE-DAWLEY/MALE, Route: ORAL, 0.5, 2, 10 MG/KG IN DIET FOR 2 YR (STUDY DURATION: 2 YR), 0.5, 2, 10 MG/KG IN DIET FOR 2 YR (STUDY DURATION: 2 YR)): inactive; negative
- carcinogen call (Species: RAT, Strain/Sex: STRAIN-CD/FEMALE, Route: ORAL, 0.5, 2, 10 MG/KG/D IN DIET FOR 2 YR (STUDY DURATION: 2 YR), 0.5, 2, 10 MG/KG/D IN DIET FOR 2 YR (STUDY DURATION: 2 YR)): inactive; negative
- carcinogen call (Species: RAT, Strain/Sex: STRAIN-CD/MALE, Route: ORAL, 0.5, 2, 10 MG/KG/D IN DIET FOR 2 YR (STUDY DURATION: 2 YR), 0.5, 2, 10 MG/KG/D IN DIET FOR 2 YR (STUDY DURATION: 2 YR)): inactive; negative

SMILES: CN(C)CCOc1ccc(/C(=C(/CCCl)c2ccccc2)c2ccccc2)cc1
- carcinogen call (Species: RAT, Strain/Sex: SPRAGUE-DAWLEY/FEMALE, Route: GAVAGE, 12, 24 MG/KG IN 0.5% CARBOXYMETHYLCELLULOSE 1/D 7 D/WK FOR UP TO 12 MO (STUDY DURATION: 15 MO), 12, 24 MG/KG IN 0.5% CARBOXYMETHYLCELLULOSE 1/D 7 D/WK FOR UP TO 12 MO (STUDY DURATION: 15 MO)): inactive; negative
- carcinogen call (Species: RAT, Strain/Sex: SPRAGUE-DAWLEY/FEMALE, Route: ORAL, 0.12, 1.2, 5, 12 MG/KG/D IN DIET FOR DURATION OF STUDY (STUDY DURATION: 104 WK), 0.12, 1.2, 5, 12 MG/KG/D IN DIET FOR DURATION OF STUDY (STUDY DURATION: 104 WK)): inactive; negative
- carcinogen call (Species: RAT, Strain/Sex: SPRAGUE-DAWLEY/MALE, Route: ORAL, 0.12, 1.2, 5, 12 MG/KG/D IN DIET FOR DURATION OF STUDY (STUDY DURATION: 104 WK), 0.12, 1.2, 5, 12 MG/KG/D IN DIET FOR DURATION OF STUDY (STUDY DURATION: 104 WK)): inactive; negative

SMILES: Cc1cc2c(nc1N)[nH]c1ccccc12
- carcinogen call (Species: MOUSE, Strain/Sex: CDF1/FEMALE, Route: ORAL, 0.08% IN DIET FOR UP TO 685 D (STUDY DURATION: 685 D), Tumor Site: Type of Lesion: LIVER: HEPATOCELLULAR ADENOMA OR CARCINOMA, BLOOD VESSELS: HEMANGIOENDOTHELIOMA OR HEMANGIOENDOTHELIAL SARCOMA): active; positive
- carcinogen call (Species: MOUSE, Strain/Sex: CDF1/MALE, Route: ORAL, 0.05% IN DIET FOR UP TO 685 D (STUDY DURATION: 685 D), Tumor Site: Type of Lesion: LIVER: HEPATOCELLULAR ADENOMA OR CARCINOMA, BLOOD VESSELS: HEMANGIOENDOTHELIOMA OR HEMANGIOENDOTHELIAL SARCOMA): active; positive
- carcinogen call (Species: RAT, Strain/Sex: F344/MALE, Route: ORAL, 0.01, 0.02% IN DIET FOR 100 WK (STUDY DURATION: 100 WK), 0.01, 0.02% IN DIET FOR 100 WK (STUDY DURATION: 100 WK), Tumor Site: Type of Lesion: LIVER: HEPATOCELLULAR CARCINOMA, PANCREAS: ACINAR CELL ADENOMA, SKIN (SUBCUTIS): FIBROMA, Tumor Site: Type of Lesion: LIVER: HEPATOCELLULAR CARCINOMA, PANCREAS: ACINAR CELL ADENOMA, SKIN (SUBCUTIS): FIBROMA): active; positive

SMILES: COc1ccc(-c2ccccc2)cc1NNC(=O)OC(C)C
- carcinogen call (Species: Mouse, Strain/Sex: B6C3F1/Female (50/group), Route: Oral, 10, 100, 175 ppm in diet for 78 wks, 10, 100, 175 ppm in diet for 78 wks): inactive; negative; purity 92.5%
- carcinogen call (Species: Rat, Strain/Sex: Sprague-Dawley/Female (60/group), Route: Oral, 20, 80, 160 ppm in diet for 104 wks, 20, 80, 160 ppm in diet for 104 wks): inactive; negative; purity 92.5%
- carcinogen call (Species: Rat, Strain/Sex: Sprague-Dawley/Male (60/group), Route: Oral, 20, 80, 200 ppm in diet for 104 wks, 20, 80, 200 ppm in diet for 104 wks): inactive; negative; purity 92.5%
